Reference: paper PMC9639481, “Discovery of dual tubulin-NEDDylation inhibitors with antiproliferative activity” (Journal of Enzyme Inhibition and Medicinal Chemistry, 2022)

Assays:
[1] = tested on: T1, tubulin; assay: in vitro tubulin polymerisation assay; supported by immunofluorescence of microtubules in HepG2 cells; format: biochemical
T1 construct: with alpha/beta-tubulin heterodimer

[2] = tested on: T1, tubulin; assay: in vitro tubulin polymerisation assay; format: biochemical

IC50 [1] [µM]	IC50 [2] [µM]	SMILES
2.4		COc1ccc(CN(C(=O)CSC(=S)N2CCCCC2)c2cc(OC)c(OC)c(OC)c2)cc1 [C11, 2-((4-Methoxybenzyl)(3,4,5-trimethoxyphenyl)amino)-2-oxoethylpiperidine-1-carbodithioate]
	> 4	COc1ccc(CN(C(=O)CSC(=S)N2CC(C)CC(C)C2)c2cc(OC)c(OC)c(OC)c2)cc1 (centres unmarked) [C14, 2-((4-Methoxybenzyl)(3,4,5-trimethoxyphenyl)amino)-2-oxoethyl-3,5-dimethylpiperidine-1-carbodithioate]
